# Data as given in patent publication US10487081B2, “Guanidine substituted imidazo[4,5-c] ring compounds” (3M INNOVATIVE PROPERTIES COMPANY, priority 2015, dated 2019).
# Where a name gives a salt, the structure may show the parent alone. Read-outs that look alike come from different tables or passages of the source.
# Legend:
# [1] = system: Human peripheral blood mononuclear cells (PBMC); experiment: Cytokine Induction in Human Cells; type: cell-based; conditions: 21-24 hrs culture, lowest concentration giving at least 2x negative control, tested 0.0001-10 micromolar
# Experimental: Cytokine Induction in Human Cells
# Whole blood was obtained from healthy human donors and collected by venipuncture into vacutainer tubes or syringes containing EDTA. Human peripheral blood mononuclear cells (PBMC) were purified from the whole blood by density gradient centrifugation. Histopaque 1077 (15 mL, Sigma, St. Louis, Mo.) was transferred to 6×50 mL sterile polypropylene conical tubes. The Histopaque was overlayed with 15-25 mL of blood diluted 1:2 in Hank's Balanced Salts Solution (HBSS) (Gibco, Life Technology, Grand Island N.Y.). The tubes were then centrifuged at 1370 rpm for 30 minutes at 20° C., with no brake (400×g, GH 3.8A Rotor).
# The interface (buffy coat) containing the PBMC was collected and placed in a new sterile 50 mL conical polypropylene centrifuge tube. The PBMC were mixed with an equal volume of HBSS (about 20 mL from the interface and about 20 mL of HBSS), and then centrifuged at 1090 rpm, 10 min, 20° C., with brake (270×g, GH 3.8A Rotor). After completing centrifugation, the cells were resuspended in 2-3 mL ACK Red blood cell lysis buffer (ammonium chloride potassium solution, Gibco, Life Technology) and incubated for 2-5 minutes at 20° C. Next, HBSS (40 mL) was added to the cells, and the sample was centrifuged at 270×g for 10 min at 20° C. The supernatant was decanted, and the cell pellet was resuspended in 5 mL AIM V® Medium (Gibco, Life Technology). Cell aggregates and debris were removed by filtering the cell solution through a BD Falcon 70 micron nylon cell strainer (BD Biosciences, San Jose, Calif.).
# The number of viable cells were determined by counting with a Miltenyi FACS instrument (Miltenyi Biotec Inc., San Diego, Calif.) or by using a hemacytometer. For determining cell viability with a hemacytometer, the cells were diluted 1/10 in 0.4% trypan blue and HBSS (specifically, 50 microliter of trypan blue+40 microliter of HBSS+10 microliter of cell solution were added to a microfuge tube and mixed). Ten microliters of the diluted cells were then applied to the hemacytometer, and the number of viable PBMC were determined by microscopy.
# The PBMC sample was then resuspended in 96-well plates at a concentration of 8×10^5 cells/well in 0.1 mL of AIM-V medium. Each compound was solubilized in DMSO to create a 3 mM stock solution. The stock solution was then further diluted with AIM-V medium to prepare the serial dilutions. The diluted compound (100 microliters) was then transferred to the PBMCs to achieve final compound concentrations of 10, 1, 0.1, 0.01, 0.001, 0.0001 micromolar. The plates also had both positive and negative controls. The negative control wells contained only AIM-V medium with no example compound. The positive control wells contained imiquimod serially diluted to concentrations of 10, 1, 0.1, 0.01, 0.001, 0.0001 micromolar. The plates were then cultured at 37° C./5% CO2 for 21-24 hrs. Cell-free supernatants were harvested by centrifuging the 96-well plates at 2100 rpm, 23° C. for 10 minutes. Approximately 160 microliter of the supernatant was then stored in a NUNC 96-well plate, covered with the compression cap and stored at −80° C. until the cytokine analysis was done.
# IFN-alpha cytokine levels (pg/mL) were measured by ELISA (human IFN-α, pan specific, Mabtech, Cincinnati, Ohio), IFN-gamma, TNF-alpha, and IP-10 cytokine levels (pg/mL) were measured by multiplex bead assay (magnetic beads, R & D Systems Minneapolis, Minn.) according to the manufacturer's instructions.
# Specifically, the minimum effective concentration of each compound (micromolar) was determined as the lowest concentration of the compound that induced a measured cytokine response at a level ([…]) that was at least 2× greater than that observed with the negative control wells.
# [2] = ELISA, read-out: MEC to Induce Cytokine IFN-alpha
# [3] = multiplex bead assay, read-out: MEC to Induce Cytokine TNF-alpha
Compound,melting point,"minimal effective concentration [1, 2]","minimal effective concentration [1, 3]",MEC to Induce Cytokine IP-10 ([1]; multiplex bead assay),MEC to Induce Cytokine IFN-gamma ([1]; multiplex bead assay)
"Cc1nc2c(N)nc3ccccc3c2n1CCCCNC(=N)N (as salt: hydrochloride) [Example 1, 1-[4-(4-amino-2-methyl-imidazo[4,5-c]quinolin-1-yl)butyl]guanidine dihydrochloride]",234 to 244 °C,–,–,–,–
"CCCc1nc2c(N)nc3ccccc3c2n1CCCCNC(=N)N (as salt: hydrochloride) [Example 3, 1-[4-(4-amino-2-propyl-imidazo[4,5-c]quinolin-1-yl)butyl]guanidine hydrochloride]",156 to 158 °C,–,–,–,–
"CCCCc1nc2c(N)nc3ccccc3c2n1CCCCNC(=N)N (as salt: hydrochloride) [Example 4, 1-[4-(4-amino-2-butyl-imidazo[4,5-c]quinolin-1-yl)butyl]guanidine hydrochloride]",237 to 238 °C,–,–,–,–
"COCCc1nc2c(N)nc3ccccc3c2n1CCOCCNC(=N)N (as salt: hydrochloride) [Example 6, 1-[2-[2-[4-amino-2-(2-methoxyethyl)imidazo[4,5-c]quinolin-1-yl]ethoxy]ethyl]guanidine dihydrochloride]",188 to 192 °C,–,–,–,–
"CCCCCc1nc2c(N)nc3c(c2n1CCCCNC(=N)N)CCCC3 (as salt: hydrochloride) [Example 7, 1-[4-(4-amino-2-pentyl-6,7,8,9-tetrahydroimidazo[4,5-c]quinolin-1-yl)butyl]guanidine hydrochloride]",178 to 180 °C,–,–,–,–
"COCCc1nc2c(N)nc3ccccc3c2n1CC(C)(C)CNC(=N)N (as salt: hydrochloride) [Example 8, 1-[3-[4-amino-2-(2-methoxyethyl)imidazo[4,5-c]quinolin-1-yl]-2,2-dimethyl-propyl]guanidine hydrochloride]",246 to 250 °C,–,–,–,–
"Cc1nc2c(N)nc3ccccc3c2n1CCCCNC(=N)N [Example 1, 1-[4-(4-amino-2-methyl-imidazo[4,5-c]quinolin-1-yl)butyl]guanidine dihydrochloride]",–,1 µM,0.001 µM,–,–
"CCc1nc2c(N)nc3ccccc3c2n1CCCCNC(=N)N [Example 2, 1-[4-(4-amino-2-ethyl-imidazo[4,5-c]quinolin-1-yl)butyl]guanidine hydrochloride]",–,0.1 µM,0.1 µM,0.1 µM,–
"CCCc1nc2c(N)nc3ccccc3c2n1CCCCNC(=N)N [Example 3, 1-[4-(4-amino-2-propyl-imidazo[4,5-c]quinolin-1-yl)butyl]guanidine hydrochloride]",–,0.1 µM,0.1 µM,–,>10 µM
"CCCCc1nc2c(N)nc3ccccc3c2n1CCCCNC(=N)N [Example 4, 1-[4-(4-amino-2-butyl-imidazo[4,5-c]quinolin-1-yl)butyl]guanidine hydrochloride]",–,0.01 µM,0.01 µM,0.01 µM,0.1 µM
"CCCCc1nc2c(N)nc3ccccc3c2n1CCOCCNC(=N)N [Example 5, 1-[2-[2-(4-amino-2-butyl-imidazo[4,5-c]quinolin-1-yl)ethoxy]ethyl]guanidine dihydrochloride]",–,0.01 µM,0.001 µM,0.001 µM,0.01 µM
"COCCc1nc2c(N)nc3ccccc3c2n1CCOCCNC(=N)N [Example 6, 1-[2-[2-[4-amino-2-(2-methoxyethyl)imidazo[4,5-c]quinolin-1-yl]ethoxy]ethyl]guanidine dihydrochloride]",–,0.01 µM,0.01 µM,0.01 µM,0.01 µM
"CCCCCc1nc2c(N)nc3c(c2n1CCCCNC(=N)N)CCCC3 [Example 7, 1-[4-(4-amino-2-pentyl-6,7,8,9-tetrahydroimidazo[4,5-c]quinolin-1-yl)butyl]guanidine hydrochloride]",–,1 µM,1 µM,0.1 µM,>10 µM
"COCCc1nc2c(N)nc3ccccc3c2n1CC(C)(C)CNC(=N)N [Example 8, 1-[3-[4-amino-2-(2-methoxyethyl)imidazo[4,5-c]quinolin-1-yl]-2,2-dimethyl-propyl]guanidine hydrochloride]",–,0.1 µM,0.1 µM,0.01 µM,0.1 µM
"CC(C)Cn1cnc2c(N)nc3ccccc3c21 [imiquimod, reference compound]",–,10 µM,10 µM,10 µM,10 µM
